{"source": "paper PMC8400343", "about": "“Synthesis and Evaluation of the Antidepressant-like Properties of HBK-10, a Novel 2-Methoxyphenylpiperazine Derivative Targeting the 5-HT1A and D2 Receptors” (Pharmaceuticals, 2021)", "key": {"dopamine D2 receptor": {"target": "T1, dopamine D2 receptor (Homo sapiens, UniProt P14416)", "T1 construct": "expressed in transfected cells; host or cells: recombinant CHO-K1 co-expressing mitochondrially targeted aequorin and Gαqi/5", "T1 sequence (P14416 whole entry)": "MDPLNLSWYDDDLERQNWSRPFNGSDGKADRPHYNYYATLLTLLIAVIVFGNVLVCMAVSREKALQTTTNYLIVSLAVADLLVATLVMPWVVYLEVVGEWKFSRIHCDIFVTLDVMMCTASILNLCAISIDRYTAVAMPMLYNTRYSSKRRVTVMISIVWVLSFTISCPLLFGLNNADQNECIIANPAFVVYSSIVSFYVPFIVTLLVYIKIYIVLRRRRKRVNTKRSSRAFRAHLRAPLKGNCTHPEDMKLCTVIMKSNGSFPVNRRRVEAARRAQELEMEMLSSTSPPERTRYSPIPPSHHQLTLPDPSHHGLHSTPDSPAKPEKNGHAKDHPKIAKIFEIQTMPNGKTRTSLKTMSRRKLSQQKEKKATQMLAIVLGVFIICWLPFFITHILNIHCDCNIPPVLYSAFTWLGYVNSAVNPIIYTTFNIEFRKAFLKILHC", "assay": "Aequorin-based calcium mobilization functional assay, CHO-K1 cells", "assay_type": "cell-based", "method": "Therefore, using in vitro functional assay, we next investigated the type of the interaction with this receptor.\nTested and reference compounds were dissolved in dimethyl sulfoxide (DMSO) at a concentration of 1 mM. Serial dilutions were prepared in 96-well microplate in assay buffer, and 8-to-10 concentrations were tested. A cellular aequorin-based functional assay was performed with recombinant CHO-K1 cells expressing mitochondrially targeted aequorin, human GPCR, and the promiscuous G protein Gαqi/5 for D2 receptor. After thawing, cells were transferred to assay buffer (DMEM/HAM’s F12 with 0.1% protease-free BSA) and centrifuged. The cell pellet was resuspended in assay buffer, and coelenterazine h was added at final concentrations of 5 µM. […] After 1 h of incubation, 50 µL of the cell’s suspension was dispensed using automatic injectors built into the radiometric and luminescence plate counter MicroBeta2 LumiJET (PerkinElmer, USA) into white opaque 96-well microplates preloaded with test compounds. Immediate light emission generated following calcium mobilization was recorded for 30 s. In antagonist mode, after 30 min of incubation, the reference agonist was added to the above assay mix and light emission was recorded again."}, "mice": {"system": "mice", "assay": "Forced swim test in naive mice", "assay_type": "in vivo, mouse", "method": "Adult male Albino-Swiss mice (CD-1, 8 weeks old, 18–21g: Jagiellonian University Medical College, Krakow, Poland) were used in all experiments. Unless stated otherwise, the animals were kept in groups of 10 mice in standard cages (37 cm × 21 cm × 15 cm) at a room temperature (22 ± 2 °C), on a 12 h light/dark cycle (lights on 7:00) with ad libitum access to food and water. Mice were used only once in each test. Behavioral experiments were performed between 8 am and 4 pm and evaluated by a trained observer blind to the treatments. Mice were handled for 1 week before starting the experimental procedures. Animals were randomly allocated to the treatment using a computer-generated sequence, and researchers making measurements on the animals or analyzing the results were blind to the allocation. Moreover, experimental groups were distributed across multiple cages, and the location of the mouse cages in the room was changed following each day.\nHBK-10, WAY-100635 (Sigma, Darmstadt, Germany), p-chlorophenylalanine (pCPA; Sigma, Darmstadt, Germany), fluoxetine (Sigma, Darmstadt, Germany), reboxetine (Sigma, Darmstadt, Germany) and bupropion (Sigma, Darmstadt, Germany), were suspended in 1% Tween, and administered ip at a volume of 10 mL/kg 30 min before each behavioral test. The control groups received saline ip 30 min prior to testing. The doses of fluoxetine, reboxetine and bupropion as well as WAY-100635 and pCPA were based on our previous studies with 2-methoxyphenylpiperazine derivatives.\nThe experiment was performed on mice according to the method described by Porsolt et al. and as previously described. Mice were placed individually in glass cylinders (height 25 cm, diameter 10 cm) filled with water at 24 ± 1 °C to a depth of 10 cm and left there for 6 min. Following a 2 min habituation period, total time spent immobile was recorded during the next 4 min. The animal was considered as immobile when it remained floating passively in the water, making only small movements to keep its head above the water. The experiments were video-recorded and scored using elevenmaze.com software by a trained observer blind to the treatments.\nTo assess the involvement of a serotonergic system in the antidepressant-like activity of tested compounds in the forced swim test, the mice were pretreated with pCPA (tryptophan hydroxylase inhibitor) according to the method previously described. […]. Twenty-four hours after the last pCPA administration, we injected mice with 1% Tween ip or tested compound. We performed the forced swim test 30 min after the administration.\nThe putative involvement of 5-HT1A receptors in the antidepressant-like effect of tested compound was studied using WAY-100635 (a selective 5-HT1A receptor antagonist). WAY-100635 at a dose of 0.1 mg/kg was administered sc 15 min prior to the injection of HBK-10. After 30 min the forced swim test was performed. The behaviorally ineffective dose of WAY-100635 used in the experiments was based on our previous experiments."}}, "data": [{"smiles": "CCC(CN1CCN(c2ccccc2OC)CC1)NCCCOc1c(C)cccc1C.Cl.Cl", "note": "(centres unmarked) [HBK-10, N-(3-(2,6-dimethylphenoxy)propyl)-1-(4-(2-methoxyphenyl)piperazin-1-yl)butan-2-amine dihydrochloride]", "values": [{"measurement": "Emax", "setting": "dopamine D2 receptor; CHO-K1, read-out: Emax %, agonist mode", "value": 9, "unit": "%"}, {"measurement": "Kb, fold lower than Kb of chlorpromazine", "setting": "dopamine D2 receptor; D2, antagonist mode", "value": 3.1, "unit": "fold"}, {"measurement": "Kb", "setting": "dopamine D2 receptor; D2, antagonist mode, Cheng–Prusoff equation", "value": 2.76, "unit": "nM"}, {"measurement": "IC50", "setting": "dopamine D2 receptor; read-out: pIC50 ± SEM, antagonist mode (converted)", "value": 9.33, "unit": "nM"}, {"measurement": "Reduction of immobility in the forced swim test", "setting": "mice; 1.25 mg/kg ip, WAY-100635 experiment, no pretreatment", "value": 35.7, "unit": "%"}, {"measurement": "Reduction of immobility in the forced swim test", "setting": "mice; 1.25 mg/kg ip, pCPA experiment, no pretreatment", "value": 28.1, "unit": "%"}, {"measurement": "Reduction of immobility in the forced swim test", "setting": "mice; 1st of five values, dose range 1.25–10 mg/kg ip, 30 min before test (lowest dose 1.25 mg/kg)", "value": 21.1, "unit": "%"}, {"measurement": "Reduction of immobility in the forced swim test", "setting": "mice; 2nd of five values, dose range 1.25–10 mg/kg ip, dose not given", "value": 23.5, "unit": "%"}, {"measurement": "Reduction of immobility in the forced swim test", "setting": "mice; 3rd of five values, dose range 1.25–10 mg/kg ip, dose not given", "value": 26.6, "unit": "%"}, {"measurement": "Reduction of immobility in the forced swim test", "setting": "mice; 4th of five values, dose range 1.25–10 mg/kg ip, dose not given", "value": 44.2, "unit": "%"}, {"measurement": "Reduction of immobility in the forced swim test", "setting": "mice; 5th of five values, dose range 1.25–10 mg/kg ip (highest dose 10 mg/kg)", "value": 47.2, "unit": "%"}, {"measurement": "Effect on immobility in the forced swim test, combined administration", "setting": "mice; HBK-10 0.625 mg/kg combined with bupropion 2.5 mg/kg, ip", "value": "did not significantly decrease the immobility"}, {"measurement": "Decrease of immobility in the forced swim test, combined administration", "setting": "mice; HBK-10 0.625 mg/kg combined with fluoxetine 10 mg/kg, ip", "value": 40.9, "unit": "%"}, {"measurement": "Decrease of immobility in the forced swim test, combined administration", "setting": "mice; HBK-10 0.625 mg/kg combined with reboxetine 5 mg/kg, ip", "value": 57.7, "unit": "%"}, {"measurement": "Antidepressant-like effect in the forced swim test after pCPA pretreatment", "setting": "mice; HBK-10 1.25 mg/kg ip after pCPA 200 mg/kg for three days", "value": "abolished"}, {"measurement": "Antidepressant-like effect in the forced swim test after WAY-100635 pretreatment", "setting": "mice; HBK-10 1.25 mg/kg ip, WAY-100635 0.1 mg/kg sc 15 min before", "value": "abolished"}, {"measurement": "Active dose in the forced swim test, fold lower than escitalopram", "setting": "mice; comparator data ref 19, 42", "value": 2, "unit": "fold"}, {"measurement": "Active dose in the forced swim test, fold lower than reboxetine", "setting": "mice; comparator data ref 19, 42", "value": 8, "unit": "fold"}, {"measurement": "Activity in the forced swim test at 0.625 mg/kg", "setting": "mice; naive mice, 0.625 mg/kg, single administration", "value": "inactive"}, {"measurement": "Lowest active dose in the forced swim test", "setting": "mice; naive mice, single administration", "value": 1.25, "unit": "mg/kg"}]}]}
